Source: ChEMBL document CHEMBL5726927, “Heterocyclic derivatives as modulators of kinase activity” (2019)

Experiment: P70S6K Enzyme Assay: P70S6K inhibitor compounds were diluted and plated in 96 well plates. A reaction mixture including the following components was then added to the compound plate to initiate the enzyme reaction; P70S6K (3 nM, T412E mutant, Millipore) was mixed with 24 μM ATP in an assay buffer containing 100 mM Hepes (pH 7.5), 5 mM MgCl2, 1 mM DTT, 0.015% Brij and 1 μM of the substrate peptide FITC-AHA-AKRRRLSSLRA-OH (derived from the S6 ribosomal protein sequence, FITC=fluorescein isothiocyanate, AHA=6-aminohexanoic acid). The reaction was incubated for 90 min at 25° C., before the addition of 10 mM EDTA to stop the reaction. The proportion of substrate and product (phosphorylated) peptide was analysed on a Caliper Life Sciences Lab Chip 3000, using a pressure of −1.4 psi, and upstream and downstream voltages of −3000 and −700 respectively. Product peaks were resolved before substrate peaks on the resulting chromatograms.

IC50: > 1 µM
Structure (SMILES): O=C1CNc2ncnc(N3CCN(C(CN4CCCC4)c4ccc(F)c(Cl)c4)CC3)c2N1 (stereo unspecified)
